Test results as given in patent publication US20250236608A1, “EGFR INHIBITORS” (Blueprint Medicines Corporation, priority 2022, published 2025).

Experiments:
[1] = molecular target: EGFR L858R (Homo sapiens (Human), UniProt P00533, L858R); assay: Biochemical EGFR inhibition assay, EGFR L858R; conditions: Caliper mobility shift; 1.0 mM ATP or ATP Km; read-out: Enz EGFR_L858R IC50
[2] = molecular target: EGFR (d746-750) (Homo sapiens (Human), UniProt P00533, DEL746-750); assay: Biochemical EGFR inhibition assay, EGFR (d746-750); conditions: Caliper mobility shift; 1.0 mM ATP or ATP Km; read-out: Enz EGFR_Exon19-del746-750 IC50
Sequence of EGFR (d746-750) (P00533 other isoform, or with tags, fused parts or gaps del 1-694/del 746-750 limits assumed): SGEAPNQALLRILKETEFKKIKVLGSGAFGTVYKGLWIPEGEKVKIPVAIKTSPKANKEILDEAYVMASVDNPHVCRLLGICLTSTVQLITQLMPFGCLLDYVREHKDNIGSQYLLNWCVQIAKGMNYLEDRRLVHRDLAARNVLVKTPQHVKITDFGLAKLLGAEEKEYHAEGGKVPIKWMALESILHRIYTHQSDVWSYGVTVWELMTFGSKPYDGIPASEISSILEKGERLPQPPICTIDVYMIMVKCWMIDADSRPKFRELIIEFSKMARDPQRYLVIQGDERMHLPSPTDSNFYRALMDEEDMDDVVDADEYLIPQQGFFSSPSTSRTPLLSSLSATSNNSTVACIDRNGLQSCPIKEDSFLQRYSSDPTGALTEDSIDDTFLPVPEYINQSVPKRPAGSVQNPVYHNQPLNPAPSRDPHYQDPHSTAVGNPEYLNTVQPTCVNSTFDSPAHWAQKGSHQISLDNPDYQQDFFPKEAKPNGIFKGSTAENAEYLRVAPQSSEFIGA

[3] = molecular target: pEGFR (Tyr1068) in PC-9 cells (Ex19Del) (Homo sapiens (Human), UniProt P00533, DEL746-750); assay: PC-9 pEGFR AlphaLISA assay; format: cell-based; conditions: 4 hours incubation, p-EGFR (Tyr1068) AlphaLISA, read-out: Ext pEGFR_PC-9 Ex19Del IC50
Sequence of pEGFR (Tyr1068) in PC-9 cells (Ex19Del) (P00533 other isoform, or with tags, fused parts or gaps del 746-750): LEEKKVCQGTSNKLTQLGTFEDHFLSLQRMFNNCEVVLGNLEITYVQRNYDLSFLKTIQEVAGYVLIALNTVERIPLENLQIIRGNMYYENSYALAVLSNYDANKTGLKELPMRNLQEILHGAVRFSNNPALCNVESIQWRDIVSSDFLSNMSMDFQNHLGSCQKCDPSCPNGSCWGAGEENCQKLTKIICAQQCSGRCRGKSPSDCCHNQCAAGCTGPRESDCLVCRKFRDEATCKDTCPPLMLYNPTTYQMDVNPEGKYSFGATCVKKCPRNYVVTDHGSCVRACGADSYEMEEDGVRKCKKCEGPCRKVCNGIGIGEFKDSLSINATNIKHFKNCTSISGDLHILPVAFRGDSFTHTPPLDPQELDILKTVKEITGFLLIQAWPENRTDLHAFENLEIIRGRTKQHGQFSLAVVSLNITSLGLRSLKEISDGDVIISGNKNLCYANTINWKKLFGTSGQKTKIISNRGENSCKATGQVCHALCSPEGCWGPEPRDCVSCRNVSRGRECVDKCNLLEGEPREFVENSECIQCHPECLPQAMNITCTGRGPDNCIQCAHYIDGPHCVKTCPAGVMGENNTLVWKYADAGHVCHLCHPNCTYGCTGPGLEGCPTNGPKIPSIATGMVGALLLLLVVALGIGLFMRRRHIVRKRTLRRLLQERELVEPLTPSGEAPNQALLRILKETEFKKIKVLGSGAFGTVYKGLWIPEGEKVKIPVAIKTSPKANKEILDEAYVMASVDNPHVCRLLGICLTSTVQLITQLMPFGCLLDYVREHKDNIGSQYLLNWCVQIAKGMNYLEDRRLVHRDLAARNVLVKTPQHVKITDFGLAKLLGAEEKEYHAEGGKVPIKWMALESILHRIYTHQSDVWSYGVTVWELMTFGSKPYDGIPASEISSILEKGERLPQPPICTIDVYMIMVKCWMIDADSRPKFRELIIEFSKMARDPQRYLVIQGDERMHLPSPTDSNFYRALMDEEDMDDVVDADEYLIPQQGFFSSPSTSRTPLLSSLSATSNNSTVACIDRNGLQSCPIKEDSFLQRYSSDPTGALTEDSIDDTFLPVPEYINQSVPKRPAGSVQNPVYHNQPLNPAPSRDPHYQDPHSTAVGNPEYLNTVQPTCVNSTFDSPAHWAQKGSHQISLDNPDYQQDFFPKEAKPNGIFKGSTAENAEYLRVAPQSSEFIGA
How it was run: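 First, cells settled overnight in 10% FBS medium. Second, a 10-point, 4-fold series of test agents was applied for 4 h at 37° C. Third, lysates were probed with AlphaLISA acceptor and donor beads, incubated overnight in the dark. Last, IC50 was taken from the dose-response.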

Sequence of EGFR L858R (P00533 25-1210 L858R): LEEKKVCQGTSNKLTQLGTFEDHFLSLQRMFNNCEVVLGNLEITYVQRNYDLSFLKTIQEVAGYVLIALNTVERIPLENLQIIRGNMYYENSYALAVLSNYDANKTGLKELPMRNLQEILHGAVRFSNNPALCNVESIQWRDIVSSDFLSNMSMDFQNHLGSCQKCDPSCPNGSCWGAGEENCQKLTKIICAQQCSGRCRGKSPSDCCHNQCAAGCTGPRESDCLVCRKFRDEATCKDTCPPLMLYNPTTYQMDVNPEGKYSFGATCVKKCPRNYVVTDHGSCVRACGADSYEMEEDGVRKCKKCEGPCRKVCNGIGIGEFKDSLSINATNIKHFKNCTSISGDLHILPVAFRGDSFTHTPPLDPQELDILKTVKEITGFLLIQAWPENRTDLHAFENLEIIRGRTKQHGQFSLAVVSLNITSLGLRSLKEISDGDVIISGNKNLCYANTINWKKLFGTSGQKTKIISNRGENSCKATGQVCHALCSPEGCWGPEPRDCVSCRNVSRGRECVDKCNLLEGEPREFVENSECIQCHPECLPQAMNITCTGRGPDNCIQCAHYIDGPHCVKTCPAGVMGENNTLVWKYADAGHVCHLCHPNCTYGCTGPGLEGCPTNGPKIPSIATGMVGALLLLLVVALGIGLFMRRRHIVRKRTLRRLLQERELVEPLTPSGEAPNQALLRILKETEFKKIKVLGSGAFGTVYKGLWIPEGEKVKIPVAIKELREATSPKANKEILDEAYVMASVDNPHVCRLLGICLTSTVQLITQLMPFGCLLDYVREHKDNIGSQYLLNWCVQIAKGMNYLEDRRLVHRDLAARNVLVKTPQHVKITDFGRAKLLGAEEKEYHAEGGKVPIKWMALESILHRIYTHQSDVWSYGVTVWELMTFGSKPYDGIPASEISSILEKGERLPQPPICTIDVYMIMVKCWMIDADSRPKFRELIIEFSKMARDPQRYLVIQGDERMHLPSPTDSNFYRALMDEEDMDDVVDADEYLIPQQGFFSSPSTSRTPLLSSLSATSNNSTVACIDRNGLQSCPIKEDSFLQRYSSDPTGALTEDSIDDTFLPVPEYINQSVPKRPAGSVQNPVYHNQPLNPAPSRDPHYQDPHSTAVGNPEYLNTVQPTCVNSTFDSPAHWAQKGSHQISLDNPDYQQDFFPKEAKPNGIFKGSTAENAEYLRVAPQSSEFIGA

`CCN1CCN(C(=O)Oc2cc3c(-c4cn(C)nc4-c4ccccc4)ncnc3cc2OC)[C@@H](C)C1` [Example 75, 7-methoxy-4-(1-methyl-3-phenyl-1H-pyrazol-4-yl)quinazolin-6-yl (S)-4-ethyl-2-methylpiperazine-1-carboxylate] showed an IC50 [1] of 3.6 nM, an IC50 [2] of 2.2 nM and an IC50 [3] of 3.6 nM.
`COc1cc2ncnc(-c3cn(C)nc3-c3ccccc3)c2cc1NC(=O)c1c(Cl)cccc1Cl` [Example 231, 2,6-dichloro-N-(7-methoxy-4-(1-methyl-3-phenyl-1H-pyrazol-4-yl)quinazolin-6-yl)benzamide] showed an IC50 [1] of 1.5 nM, an IC50 [2] of 1 nM and an IC50 [3] of 2.4 nM.
`COc1cc2ncnc(-c3cn(C)nc3-c3ccccc3)c2cc1NC(=O)[C@H](C)N(C)C` (single isomer, unassigned) [Example 237, (R)-2-(dimethylamino)-N-(7-methoxy-4-(1-methyl-3-phenyl-1H-pyrazol-4-yl)quinazolin-6-yl) propenamide or (S)-2-(dimethylamino)-N-(7-methoxy-4-(1-methyl-3-phenyl-1H-pyrazol-4-yl)quinazolin-6-yl) propenamide] was tested, and the IC50 [1] was 5.4 nM, the IC50 [2] was 2 nM and the IC50 [3] was 6.6 nM.
`CCOc1cc2ncnc(-c3cn(C(C)C)nc3-c3ccccc3)c2cc1[C@H](C)O` (single isomer, unassigned) [Example 110, (S)-1-(7-ethoxy-4-(1-isopropyl-3-phenyl-1H-pyrazol-4-yl)quinazolin-6-yl)ethan-1-ol or (R)-1-(7-ethoxy-4-(1-isopropyl-3-phenyl-1H-pyrazol-4-yl)quinazolin-6-yl)ethan-1-ol] was tested, and the IC50 [1] was 1.8 nM, the IC50 [2] was 1.4 nM and the IC50 [3] was 2.5 nM.
Work on `COc1cc2ncnc(-c3cn(C)nc3-c3ccccc3)c2nc1NC(=O)C1(C(F)(F)F)CCOCC1` [Example 383, N-(7-methoxy-4-(1-methyl-3-phenyl-1H-pyrazol-4-yl)pyrido[3,2-d]pyrimidin-6-yl)-4-(trifluoromethyl)tetrahydro-2H-pyran-4-carboxamide] yielded an IC50 [1] of 4.5 nM, an IC50 [2] of 1.7 nM and an IC50 [3] of 5.7 nM.
`COc1cc2ncnc(-c3cn(C)nc3-c3ccc(F)cc3)c2nc1NC(=O)[C@]12CN(C)C[C@H]1C2(F)F` (single isomer, unassigned) [Example 425, (1R,5S)-6,6-difluoro-N-(4-(3-(4-fluorophenyl)-1-methyl-1H-pyrazol-4-yl)-7-methoxypyrido[3,2-d]pyrimidin-6-yl)-3-methyl-3-azabicyclo[3.1.0]hexane-1-carboxamide or (1S,5R)-6,6-difluoro-N-(4-(3-(4-fluorophenyl)-1-methyl-1H-pyrazol-4-yl)-7-methoxypyrido[3,2-d]pyrimidin-6-yl)-3-methyl-3-azabicyclo[3.1.0]hexane-1-carboxamide] showed an IC50 [1] of 2.8 nM, an IC50 [2] of 1 nM and an IC50 [3] of 0.8 nM.
`Cc1ncsc1C(=O)Nc1cc2c(-c3cn(C)nc3-c3ccccc3)ncnc2cc1OCCN(C)C` [Example 303, N-(7-(2-(dimethylamino)ethoxy)-4-(1-methyl-3-phenyl-1H-pyrazol-4-yl)quinazolin-6-yl)-4-methylthiazole-5-carboxamide] was tested, and the IC50 [1] was 11 nM, the IC50 [2] was 2.9 nM and the IC50 [3] was 8.8 nM.
For `Cc1nnc([C@@H](C)Oc2nc3c(-c4cn(C)nc4-c4ccccc4)ncnc3cc2OC2CC2)o1` (single isomer, unassigned) [Example 478, 2-[(1S)-1-{[7-cyclopropoxy-4-(1-methyl-3-phenyl-1H-pyrazol-4-yl)pyrido[3,2-d]pyrimidin-6-yl]oxy}ethyl]-5-methyl-1,3,4-oxadiazole or 2-[(1R)-1-{[7-cyclopropoxy-4-(1-methyl-3-phenyl-1H-pyrazol-4-yl)pyrido[3,2-d]pyrimidin-6-yl]oxy}ethyl]-5-methyl-1,3,4-oxadiazole], the IC50 [1] was 10.5 nM, the IC50 [2] was 2.8 nM and the IC50 [3] was 3.6 nM.
In the case of `COc1cc2ncnc(-c3cn(C)nc3-c3ccccc3)c2cc1OC(=O)N1CCN2CCCC2C1` (stereo in doubt) [Example 85, 7-methoxy-4-(1-methyl-3-phenyl-1H-pyrazol-4-yl)quinazolin-6-yl (R)-hexahydropyrrolo[1,2-a]pyrazine-2(1H)-carboxylate], the IC50 [1] is reported as 3.9 nM, the IC50 [2] is reported as 2.7 nM and the IC50 [3] is reported as 13.3 nM.
In the case of `COc1cc2ncnc(-c3cn(C)nc3-c3ccccc3)c2cc1-c1cn(C)nc1C` [Example 150, 6-(1,3-dimethyl-1H-pyrazol-4-yl)-7-methoxy-4-(1-methyl-3-phenyl-1H-pyrazol-4-yl)quinazoline], the IC50 [1] is reported as 2.2 nM, the IC50 [2] is reported as 1.2 nM and the IC50 [3] is reported as 1.5 nM.
For `COc1cc2ncnc(-c3cn(C)nc3-c3ccccc3)c2nc1NC(=O)[C@@]1(C)CCCO1` [Example 363, (R)-N-(7-methoxy-4-(1-methyl-3-phenyl-1H-pyrazol-4-yl)pyrido[3,2-d]pyrimidin-6-yl)-2-methyltetrahydrofuran-2-carboxamide], the IC50 [1] was 5.4 nM, the IC50 [2] was 1.7 nM and the IC50 [3] was 3.5 nM.
`COc1cc2ncnc(-c3cn(C)nc3-c3ccccc3)c2nc1OC(C)c1cscn1` (stereo not drawn) [Example 31, 4-(1-((7-methoxy-4-(1-methyl-3-phenyl-1H-pyrazol-4-yl)pyrido[3,2-d]pyrimidin-6-yl)oxy)ethyl)thiazole] showed an IC50 [1] of 1 nM, an IC50 [2] of 0.8 nM and an IC50 [3] of 1.1 nM.
For `CCOc1cc2ncnc(-c3cn(C)nc3-c3ccccc3)c2cc1NC(=O)c1cnn(CC)c1` [Example 298, N-(7-ethoxy-4-(1-methyl-3-phenyl-1H-pyrazol-4-yl)quinazolin-6-yl)-1-ethyl-1H-pyrazole-4-carboxamide], the IC50 [1] was 1.6 nM, the IC50 [2] was 0.9 nM and the IC50 [3] was 1 nM.
`COc1cc2ncnc(-c3cn(CCO)nc3-c3ccccc3)c2cc1NC(=O)c1ccccc1F` [Example 264, 2-fluoro-N-(4-(1-(2-hydroxyethyl)-3-phenyl-1H-pyrazol-4-yl)-7-methoxyquinazolin-6-yl)benzamide] showed an IC50 [1] of 0.6 nM, an IC50 [2] of 0.4 nM and an IC50 [3] of 0.3 nM.
`[2H]C([2H])([2H])n1cc(-c2ncnc3cc(OC)c(NC(=O)C45CC(N(C)C)(C4)C5)nc23)c(-c2ccccc2)n1` [Example 494] was tested, and the IC50 [1] was 4.4 nM, the IC50 [2] was 1.2 nM and the IC50 [3] was 3.6 nM.
For `COc1cc2ncnc(-c3cn(CC(F)F)nc3-c3ccccc3)c2cc1NC(=O)c1scnc1C` [Example 273, N-(4-(1-(2,2-difluoroethyl)-3-phenyl-1H-pyrazol-4-yl)-7-methoxyquinazolin-6-yl)-4-methylthiazole-5-carboxamide], the IC50 [1] was 1.5 nM, the IC50 [2] was 1 nM and the IC50 [3] was 0.6 nM.
`COc1cc2ncnc(-c3cn(C)nc3-c3ccccc3F)c2cc1NC(=O)[C@@]12COC[C@@H]1C2` (single isomer, unassigned) [Example 240, (1R,5R)—N-(4-(3-(2-fluorophenyl)-1-methyl-1H-pyrazol-4-yl)-7-methoxyquinazolin-6-yl)-3-oxabicyclo[3.1.0]hexane-1-carboxamide or (1S,5S)—N-(4-(3-(2-fluorophenyl)-1-methyl-1H-pyrazol-4-yl)-7-methoxyquinazolin-6-yl)-3-oxabicyclo[3.1.0]hexane-1-carboxamide] gave an IC50 [1] of 1.8 nM, an IC50 [2] of 0.8 nM and an IC50 [3] of 1.4 nM.
`COc1cc2c(-c3cn(C)nc3-c3ccccc3)ncnc2cc1N1CC2(CN(C(C)=O)C2)C1` [Example 447, 1-(6-(6-methoxy-4-(1-methyl-3-phenyl-1H-pyrazol-4-yl)quinazolin-7-yl)-2,6-diazaspiro[3.3]heptan-2-yl)ethan-1-one] showed an IC50 [1] of 1.6 nM, an IC50 [2] of 0.9 nM and an IC50 [3] of 1.6 nM.
`COc1cc2ncnc(-c3cn(C)nc3-c3ccccc3)c2cc1O[C@@H]1CCOC1` [Example 12, (R)-7-methoxy-4-(1-methyl-3-phenyl-1H-pyrazol-4-yl)-6-((tetrahydrofuran-3-yl)oxy)quinazoline] was tested, and the IC50 [1] was 2.8 nM, the IC50 [2] was 1.3 nM and the IC50 [3] was 5.6 nM.
Work on `COc1cc2ncnc(-c3cn(C)nc3-c3ccccc3)c2cc1NC(=O)c1cnc(C)c(F)c1` [Example 196, 5-fluoro-N-(7-methoxy-4-(1-methyl-3-phenyl-1H-pyrazol-4-yl)quinazolin-6-yl)-6-methylnicotinamide] yielded an IC50 [1] of 1.7 nM, an IC50 [2] of 0.9 nM and an IC50 [3] of 1.5 nM.
Compound `COc1cc2ncnc(-c3cn(C)nc3-c3ccccc3)c2cc1NC(=O)c1cnn(C(F)(F)F)c1` [Example 187, N-(7-methoxy-4-(1-methyl-3-phenyl-1H-pyrazol-4-yl)quinazolin-6-yl)-1-(trifluoromethyl)-1H-pyrazole-4-carboxamide] has an IC50 [1] of 2.6 nM, an IC50 [2] of 1.5 nM and an IC50 [3] of 4 nM.
With `Cc1nnc([C@H](C)Oc2nc3c(-c4cn(C)nc4-c4ccccc4)ncnc3cc2OC2CC2)o1` (single isomer, unassigned) [Example 477, 2-[(1R)-1-{[7-cyclopropoxy-4-(1-methyl-3-phenyl-1H-pyrazol-4-yl)pyrido[3,2-d]pyrimidin-6-yl]oxy}ethyl]-5-methyl-1,3,4-oxadiazole or 2-[(1S)-1-{[7-cyclopropoxy-4-(1-methyl-3-phenyl-1H-pyrazol-4-yl)pyrido[3,2-d]pyrimidin-6-yl]oxy}ethyl]-5-methyl-1,3,4-oxadiazole] the IC50 [1] was 7.7 nM, the IC50 [2] was 9 nM and the IC50 [3] was 25 nM.
`COc1cc2ncnc(-c3sc(C)nc3-c3ccccc3)c2cc1NC(=O)C1CC1` [Example 266, N-(7-methoxy-4-(2-methyl-4-phenylthiazol-5-yl)quinazolin-6-yl)cyclopropanecarboxamide] showed an IC50 [1] of 1.5 nM, an IC50 [2] of 1 nM and an IC50 [3] of 4.9 nM.
